From US7235584B2, “Non-psychotropic cannabinoids” (Pharmos Corporation, priority 2000, dated 2007)
Where two headings read alike, the source gives them in different places.

Experiments:
NMDA receptor = assay: [3H]MK-801 displacement radioligand binding, rat forebrain membranes
Method: The identification of possible recognition sites for PRS-211 analogs was carried out by measuring the ability of these PRS-211 analogs to inhibit the binding of MK-801 to rat forebrain membranes.
Brains were removed from Sprague-Dawley rats no more than 5 min after decapitation. Membrane preparations were isolated according to a procedure described previously (Eshhar et al., Brain Res. 476:57, 1989). Prior to radioligand binding measurements, endogenous glutamate present in membranes was removed from the preparation by subjecting the membranes to 3–4 successive washings in 10 mM Tris HCl pH 7.2, performed at 4° C.
The specific binding of the new analogs to NMDA receptors was determined by their ability to displace [^3H]MK-801 from NMDA receptor in rat forebrain preparations. Specifically, rat-forebrain membranes (0.1 mg) were incubated for 2 hours at room temperature with 10 nM of tritiated MK-801 and with the PRS-211 compounds at 3 doses each. Non-specific binding was determined by the use of 0.1 mM MK-801. Following the incubation, bound radioligand was separated from unbound by filtration through GF/B filters. The filters were counted in a β-counter and log of analog concentrations versus % of [^3H]MK-801 specific binding was plotted. The IC50 was calculated from this plot.
Binding of [^3H]MK-801 to membranes was carried out in the presence of 30 μM glycine and 10 μM L-glutamate. Membranes (250 μg protein) were resuspended in 50 mM tris-acetate pH 7.4 buffer and incubated with 10 nM [^3H]MK-801, either alone or in the presence of PRS-211 compounds at 0.1–100 μM concentrations for three hours at room temperature (RT). Reaction buffers used in the different radioligand binding studies contained 10% of an ethanol/Emulphor 620/deionized water mixture. The ratio (by volume) of the respective components in the mixture was 20/3/57. This mixture is required for solubilizing PRS-211 compounds at concentrations above 30 μM. Reaction volume was 1 ml. Non-specific [^3H]MK-801 binding was determined in the presence of 100 μM unlabeled MK-801.
Concentration dependence of certain PRS-211 analogs on inhibition of [^3H]MK-801 binding is illustrated in FIG. 1.

transient MCAo in rats = assay: Transient middle cerebral artery occlusion (MCAo), infarct size evaluation; assay type: in vivo; conditions: transient MCAo
Excerpt: The middle cerebral artery is the cerebral blood vessel most susceptible to stroke in humans. In animals, coagulation, permanent ligation or permanent placement of an occluding thread ink the artery produces a permanent focal stroke affecting the MCA territory. Transient ligation or occlusion results in transient focal stroke. Both transient and permanent focal strokes result in varying degrees of edema and infarction in the affected brain regions. The ability of compounds to reduce the volumes of edema and infarction is considered a measure of their potential as anti-stroke treatment.
• a. Male rats (8/treatment group) 320–380 gr. (Harlan Israel). • b. Halothane (Rhone Poulenc France) • c. Pentobarbitone (Pental Veterinary, CTS Israel). • d. Poly-L-Lysine (Sigma, USA). • e. Silk suture material 3-0 and 4-0. • f. Nylon (Polyamid) suture material 3-0. Four cm pieces were cut and positioned in a solution of 1% Poly-L-Lysine for 1 minute and dried in an oven (60 ° C.) for 60 minutes. The tip of each piece was rounded under a flame. • g. Saline (Teva Medical). • h. Blank cremophor ethanol cosolvent (Pharmos). • i. Dexanabinol in cremophor ethanol cosolvent 50 mg/ml. (Both Dexanabinol and its vehicle were diluted in saline prior to drug administration. • j. Analogs PRS-211,092, PRS-211,095, PRS-211,128 PRS-211,132 and PRS-211,220 in cremophor ethanol cosolvent, 50 mg/ml. • k. The analogs were diluted in saline prior to drug administration. Methods Transient MCAo
a. Surgical details of the MCAO method used for testing dexanabinol analogs, are presented in Belayev, et al., (Belayev, Busto, Weizhao, and Ginsberg, Stroke 26:2313–2319, 1995) which is incorporated herein in its entirety by reference.
b. Two hours after the start of MCAo, the animals were reanesthetized with halothane, the neck wound was re-opened and the nylon thread pulled out of the Internal carotid artery (ICA). The skin wound was then closed with 3-0 silk suture material and the animals allowed to recover from the anesthesia.
c. Three sets of animals were tested. In the first test immediately (2+0 hours) before thread removal the animals were injected IV with either analogs PRS 211,095, PRS 211,128, PRS 211,132, or Dexanabinol (PRS 211,007) each at a dosage of 5 mg/kg. One group of animals was treated with 5mi/kg vehicle alone. In another group, the animals subjected to “sham” operation, the suture was passed into the ICA, as described above, but immediately withdrawn. […] Laser Doppler Flow (LDF) determined the success of MCAo—a drop of more then 50% in cerebral blood flow was considered as a sign of successful MCAO. […]
A detailed investigation of neurological performance was carried out on the first, third and the 7th day after the MCAo. […] Animals were scored according to their performance: […]

[1] = test system: T1, nitric oxide synthase (NOS); assay: Inhibition of nitric oxide synthase, fluorimetric nitrite assay in LPS-stimulated macrophage supernatants; assay type: cell-based; conditions: macrophage cell cultures
T1 construct: endogenous in cells
Method: As one aspect of the anti-oxidative potential of the novel analogs they were tested for their ability to inhibit the enzyme nitric oxide synthase (NOS). This assay can also serve as another indication of the anti-inflammatory cascade, as well as the anti-oxidative mechanisms.
The final products of NOS are Nitrite (NO2) and Nitrate (NO3). The in vitro fluorimetric assay provides an accurate method for the measurement of the Nitrite, which is the majority of NO products. The principle of the fluorimetric assay is based on the addition of DAN (2,3-diaminonaphthalene) to the aliquots of the supernatants collected from macrophage cell cultures incubated with the new analogs and stimulated with LPS. Following, NaOH was added to convert Nitrite to a fluorescent compound 1(H)-naphthtriazole. The fluorescence was measured immediately in a fluorimeter using excitation wavelength of 365 nm and an emission wavelength of 450 nm.

tail flick model in mice = assay: Tail flick model: analgesic effect and tolerance to morphine; assay type: in vivo, ICR male mice
Excerpt: A mice model of acute pain, the tail flick model, was used to test the ability of compounds to prolong the analgesic activity of opioids, by preventing the development of tolerance, and their ability to reverse established tolerance.
The following animal model of acute pain was used to assess the potential analgesic effects of test compounds either alone or in combination with morphine. […] In this model the nociceptive stimulus is thermal and the latency time till the animal flicks its tail is monitored (Le Bars D., Gozariu M. & Cadden S. W., Pharmacol. Rev. 53: 597–652, 2001).
Hyperalgesia to radiant heat was assessed as follows. ICR male mice (20–30 g average body weight, Harlan, Israel) were injected with test compounds i.p. at the volume dose of 5 ml/kg. Each treatment group contained at least 6 animals. The test compounds were dissolved in Cremophor®:ethanol (70:30 weight/weight) and diluted 1:20 in saline prior to injection. Morphine HCl was directly dissolved in saline. Its vehicle was also included as control. Pain threshold was determined 30 minutes post-administration by measuring the foot-withdrawal latency defined as the time from the onset of radiant heat to foot withdrawal. The cut-off time was preset to 10 seconds in order to prevent tissue damage. […] Test compounds (5 mg/kg) and vehicle (5 ml/kg) were administered 15 minutes before morphine and pain threshold was determined 30 minutes after the first injection of morphine on day 1, 5, 8 and 10. […] Pain threshold was determined on day 1 and 10.
In each type of study, the animals were tested on given days 30 minutes after morphine injection in the tail flick apparatus (Socrel, model DS 20). Animals were gently held while their tails were located above the photoelectric cell. The tails were then illuminated (21V) at 2 cm from the distal tip and the latency time, measured in seconds, was recorded in duplicates. The results are expressed either as absolute latency time or as percent of animals that enjoyed significant analgesia as measured by the fact that their latency time is at least twice the latency time for vehicle treated animals. At the end of the study, the animals were euthanized by i.p. injection of 100 mg/kg sodium pentobarbitone.
The differences between the latency times among various treatment groups was analyzed by analysis of variance (ANOVA) followed by post-hoc Duncan test. The differences between the % of animals showing analgesia among various treatment groups was analyzed by analysis of variance (ANOVA) followed by post-hoc Fisher exact test. A value of p<0.05 is considered to be statistically significant.

TNFα = assay: Inhibition of TNFα in LPS-activated macrophage cell cultures (ELISA); assay type: cell-based
Method: Specific aspects of the inflammatory response cascade are mediated by the cytokine TNFα. Inhibition of TNFα production and/or inhibition of TNFα release by the new analogs are assayed in macrophage cell cultures activated with LPS. This serves as another indication of the general anti-inflammatory potential of the novel compounds.
The method for macrophage cell culture growth is identical to the one described in PGE2 assay. Aliquots of the supernatants collected following stimulation with LPS were quantitated for TNFα by enzyme linked immunosorbent assay (ELISA) using HRP conjugated to anti-TNFα antibodies and […] for the colorimetric reaction. The peroxidase catalyzed color reaction was stopped by acidification and the absorbance at 450 nm is measured. The absorbance at this wavelength is proportional to the concentration of TNFα in the sample determined from a standard curve plotting the concentrations of TNFα standards versus their absorbance.

[2] = displacement of [3H]MK-801, rat forebrain membranes, read-out: NMDA BINDING IC50

T1 sequence (P35228 whole entry): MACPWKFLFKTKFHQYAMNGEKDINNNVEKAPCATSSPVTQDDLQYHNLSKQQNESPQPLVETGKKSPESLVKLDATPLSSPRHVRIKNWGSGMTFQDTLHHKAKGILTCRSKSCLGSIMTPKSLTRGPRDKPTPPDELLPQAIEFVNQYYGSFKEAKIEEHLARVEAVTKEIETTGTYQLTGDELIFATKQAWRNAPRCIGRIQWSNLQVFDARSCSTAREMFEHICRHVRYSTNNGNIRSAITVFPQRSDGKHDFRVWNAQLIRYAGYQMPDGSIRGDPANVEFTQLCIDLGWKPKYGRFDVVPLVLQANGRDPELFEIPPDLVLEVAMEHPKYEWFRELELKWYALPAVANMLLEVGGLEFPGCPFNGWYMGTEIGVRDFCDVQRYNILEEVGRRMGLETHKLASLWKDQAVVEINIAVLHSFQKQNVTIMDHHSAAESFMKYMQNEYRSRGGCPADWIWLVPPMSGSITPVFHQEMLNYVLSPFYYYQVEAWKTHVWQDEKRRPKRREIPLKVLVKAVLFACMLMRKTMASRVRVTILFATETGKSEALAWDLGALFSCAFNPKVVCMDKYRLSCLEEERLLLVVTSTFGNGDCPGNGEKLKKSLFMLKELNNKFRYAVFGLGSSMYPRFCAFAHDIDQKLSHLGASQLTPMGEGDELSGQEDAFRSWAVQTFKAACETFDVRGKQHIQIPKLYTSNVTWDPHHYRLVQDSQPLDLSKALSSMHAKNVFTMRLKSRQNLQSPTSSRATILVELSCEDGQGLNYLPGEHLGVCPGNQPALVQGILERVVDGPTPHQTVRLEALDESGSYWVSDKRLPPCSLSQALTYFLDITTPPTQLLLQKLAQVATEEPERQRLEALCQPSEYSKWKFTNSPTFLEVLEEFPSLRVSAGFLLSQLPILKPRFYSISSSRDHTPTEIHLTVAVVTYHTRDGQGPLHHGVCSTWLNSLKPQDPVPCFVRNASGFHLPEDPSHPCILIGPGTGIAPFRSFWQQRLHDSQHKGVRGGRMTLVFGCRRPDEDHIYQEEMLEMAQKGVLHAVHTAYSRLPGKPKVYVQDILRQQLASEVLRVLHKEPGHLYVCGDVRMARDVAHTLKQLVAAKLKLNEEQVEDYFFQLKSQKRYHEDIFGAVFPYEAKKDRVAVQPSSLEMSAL

CCCCCCC(C)(C)c1cc(O)c2c(c1)OC(C)(C)[C@H]1CC=C(CN3CCCC3)C[C@H]21 [211,128-000]
NMDA receptor binding / affinity (in words) (NMDA receptor): no detectable affinity | IC50 (NMDA receptor; [2]): > 20 µM | IC50 (NMDA receptor; rat forebrain membranes, read-out: mean IC50 of [3H]MK-801 binding (FIG. 2)): > 20 µM | function, reduction of mortality and brain morphometry (transient MCAo in rats): inactive | inhibition at 10 µM [1]: 27%

CCCCCCC(C)(C)c1cc(O)c2c(c1)OC(C)(C)[C@H]1CC=C(CC#N)C[C@H]21 [211,006-000]
inhibition at 10 µM [1]: 19%

CCCCCCC(C)(C)c1cc(O)c2c(c1)OC(C)(C)[C@H]1CC=C(Cc3ccccc3)C[C@H]21 [211,119-000]
inhibition at 10 µM [1]: 0%

COc1ccc2c(c1)[C@]13CCCC[C@@H]1[C@H](C2)N(C)CC3 [dextromethorphan, reference compound]
reversal of established tolerance to morphine (tail flick model in mice; in combination with morphine from day 11, tested day 12, 15, 17, PRS-211,220 5 mg/kg, dextromethorphan 20 mg/kg): statistically undistinguishable from morphine alone

CCCCCCC(C)(C)c1cc(O)c2c(c1)OC(C)(C)[C@H]1CC=C(CN3CC=CCC3)C[C@H]21 [211,145-000]
inhibition at 10 µM [1]: 60%

CCCCCCC(C)(C)c1cc(O)c2c(c1)OC(C)(C)[C@H]1CC=C(CN3CCNC(C)C3)CC21 (stereo partly drawn) [211,134-000]
IC50 (NMDA receptor; [2]): > 100 µM

CCCCCCC(C)(C)c1cc(O)c2c(c1)OC(C)(C)[C@H]1CC=C(CN3CCOCC3)C[C@H]21 [211,132-000]
inhibition at 10 µM [1]: 40%

CCCCCCC(C)(C)c1cc(O)c2c(c1)OC(C)(C)[C@H]1CC=C(CN3CCC(N4CCCCC4)CC3)CC21 (single isomer, unassigned; (+)) [211,257-000]
NMDA receptor binding / affinity (in words) (NMDA receptor): do not exhibit substantial NMDA receptor binding | IC50 (NMDA receptor; [2]): > 100 µM | inhibition at 10 µM (TNFα): 10% | inhibition at 10 µM [1]: 39%

CCCCCCC(C)(C)c1cc(O)c2c(c1)OC(C)(C)[C@H]1CC=C(CN(Cc3ccccc3)c3ccccc3)C[C@H]21 [211,255-000]
NMDA receptor binding / affinity (in words) (NMDA receptor): do not exhibit substantial NMDA receptor binding | IC50 (NMDA receptor; [2]): > 100 µM | inhibition at 10 µM (TNFα): 0% | inhibition at 10 µM [1]: 7%

CCCCCCC(C)(C)c1cc(O)c2c(c1)OC(C)(C)[C@H]1CC=C(COCC(O)CO)C[C@H]21 (stereo partly drawn) [211,211-000]
inhibition at 10 µM [1]: 0%

CCCCCCC(C)(C)c1cc(O)c2c(c1)OC(C)(C)[C@H]1CC=C(CN3CCN=C3SC)C[C@H]21 [211,204-000]
inhibition at 10 µM [1]: 85%

CN1CC[C@]23c4c5ccc(O)c4O[C@H]2[C@@H](O)C=C[C@H]3[C@H]1C5 [morphine, reference compound]
latency time (tail flick model in mice; 5 mg/kg, plain analgesic study, 30 minutes post-administration): 7.5 s

CCCCCCC(C)(C)c1cc(O)c2c(c1)OC(C)(C)[C@H]1CC=C(CN3CC=CC3)C[C@H]21 [211,212-000]
inhibition at 10 µM [1]: 0%

CCCCCCC(C)(C)c1cc(O)c2c(c1)OC(C)(C)[C@H]1CC=C(C[S+](C)[O-])C[C@H]21 (stereo partly drawn) [211,041-000]
inhibition at 10 µM [1]: 72%

CCCCCCC(C)(C)c1cc(O)c2c(c1)OC(C)(C)[C@H]1CC=C(CN3CCNCC3)CC21 (stereo partly drawn) [211,133-000]
IC50 (NMDA receptor; [2]): > 100 µM

CCCCCCC(C)(C)c1cc(O)c2c(c1)OC(C)(C)[C@H]1CC=C(CN3CCCCC3)C[C@H]21 [211,159-000]
IC50 (NMDA receptor; [2]): > 20 µM | inhibition at 10 µM [1]: 27%
